# According to ChEMBL document CHEMBL1139920, “Synthesis and biological evaluation of diamine-based histamine H3 antagonists with serotonin reuptake inhibitor activity” (Bioorg Med Chem Lett, 2007):
# pKi: −log10 of the molar value.
# Experiments:
# [1] = target: Sodium-dependent serotonin transporter (Homo sapiens, UniProt P31645); assay: Binding affinity at human SERT
# [2] = target: Sodium-dependent serotonin transporter (Rattus norvegicus, UniProt P31652); assay: Binding affinity at rat SERT
# Histamine H3 receptor [3] = target: T1, Histamine H3 receptor (Homo sapiens, UniProt Q9Y5N1); assay: Binding affinity at human histamine H3 receptor
# [4] = target: Histamine H2 receptor (Homo sapiens) (UniProt P25021); assay: Binding affinity at histamine H2 receptor at 1 uM
# [5] = target: T2, Sodium-dependent noradrenaline transporter (Homo sapiens, UniProt P23975); assay: Binding affinity at noradrenaline transporter at 1 uM
# [6] = target: T2, Sodium-dependent noradrenaline transporter; assay: Binding affinity at human noradrenaline transporter
# Histamine H3 receptor [7] = target: T1, Histamine H3 receptor; assay: Antagonist activity at human histamine H3 receptor; format: functional; details: read-out: pA2 (converted)
# Chain of Sodium-dependent serotonin transporter (Rattus norvegicus, UniProt P31652) (P31652 whole entry): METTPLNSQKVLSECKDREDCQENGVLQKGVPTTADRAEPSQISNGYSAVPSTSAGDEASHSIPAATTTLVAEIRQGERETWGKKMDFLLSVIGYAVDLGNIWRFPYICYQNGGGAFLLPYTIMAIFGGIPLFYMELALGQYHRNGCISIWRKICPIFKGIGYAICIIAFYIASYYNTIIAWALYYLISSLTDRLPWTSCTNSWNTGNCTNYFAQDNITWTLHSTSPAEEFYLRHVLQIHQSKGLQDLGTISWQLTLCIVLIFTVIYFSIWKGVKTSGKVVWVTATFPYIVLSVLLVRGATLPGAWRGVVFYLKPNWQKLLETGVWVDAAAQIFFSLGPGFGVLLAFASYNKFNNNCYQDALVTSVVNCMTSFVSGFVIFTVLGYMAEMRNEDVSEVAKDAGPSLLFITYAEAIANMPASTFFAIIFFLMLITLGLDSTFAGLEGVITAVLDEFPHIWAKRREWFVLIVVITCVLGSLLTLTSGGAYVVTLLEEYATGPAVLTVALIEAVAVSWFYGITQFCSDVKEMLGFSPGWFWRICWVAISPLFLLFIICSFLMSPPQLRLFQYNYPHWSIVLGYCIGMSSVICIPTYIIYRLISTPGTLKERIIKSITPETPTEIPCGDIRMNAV
# Chain of Sodium-dependent serotonin transporter (Homo sapiens, UniProt P31645) (P31645 whole entry): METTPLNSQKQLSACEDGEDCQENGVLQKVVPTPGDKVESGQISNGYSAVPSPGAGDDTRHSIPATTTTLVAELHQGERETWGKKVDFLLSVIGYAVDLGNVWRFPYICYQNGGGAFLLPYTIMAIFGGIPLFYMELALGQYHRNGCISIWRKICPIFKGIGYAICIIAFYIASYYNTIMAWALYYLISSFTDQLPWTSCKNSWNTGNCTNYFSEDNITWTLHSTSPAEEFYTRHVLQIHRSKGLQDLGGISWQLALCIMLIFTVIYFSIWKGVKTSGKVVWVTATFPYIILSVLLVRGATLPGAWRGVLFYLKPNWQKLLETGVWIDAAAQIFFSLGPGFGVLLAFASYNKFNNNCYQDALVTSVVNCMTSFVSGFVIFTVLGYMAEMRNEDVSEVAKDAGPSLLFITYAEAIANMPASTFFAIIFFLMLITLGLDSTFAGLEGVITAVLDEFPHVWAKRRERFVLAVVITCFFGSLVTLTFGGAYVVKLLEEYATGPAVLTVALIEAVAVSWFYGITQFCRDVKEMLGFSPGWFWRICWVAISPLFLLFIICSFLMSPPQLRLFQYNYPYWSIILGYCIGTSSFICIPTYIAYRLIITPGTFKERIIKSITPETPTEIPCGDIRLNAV
# T1 sequence (Q9Y5N1 whole entry): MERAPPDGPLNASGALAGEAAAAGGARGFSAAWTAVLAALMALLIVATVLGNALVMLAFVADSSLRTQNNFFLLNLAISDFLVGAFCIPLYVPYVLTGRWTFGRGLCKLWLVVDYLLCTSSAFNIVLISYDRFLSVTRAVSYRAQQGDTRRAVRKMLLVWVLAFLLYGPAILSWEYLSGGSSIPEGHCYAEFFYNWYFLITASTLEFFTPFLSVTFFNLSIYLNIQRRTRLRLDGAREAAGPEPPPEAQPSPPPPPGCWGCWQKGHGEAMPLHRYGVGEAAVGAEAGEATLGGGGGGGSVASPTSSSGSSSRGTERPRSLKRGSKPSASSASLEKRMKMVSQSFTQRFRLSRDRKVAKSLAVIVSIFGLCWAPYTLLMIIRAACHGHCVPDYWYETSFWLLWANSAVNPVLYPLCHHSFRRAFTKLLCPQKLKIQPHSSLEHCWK
# T2 sequence (P23975 whole entry): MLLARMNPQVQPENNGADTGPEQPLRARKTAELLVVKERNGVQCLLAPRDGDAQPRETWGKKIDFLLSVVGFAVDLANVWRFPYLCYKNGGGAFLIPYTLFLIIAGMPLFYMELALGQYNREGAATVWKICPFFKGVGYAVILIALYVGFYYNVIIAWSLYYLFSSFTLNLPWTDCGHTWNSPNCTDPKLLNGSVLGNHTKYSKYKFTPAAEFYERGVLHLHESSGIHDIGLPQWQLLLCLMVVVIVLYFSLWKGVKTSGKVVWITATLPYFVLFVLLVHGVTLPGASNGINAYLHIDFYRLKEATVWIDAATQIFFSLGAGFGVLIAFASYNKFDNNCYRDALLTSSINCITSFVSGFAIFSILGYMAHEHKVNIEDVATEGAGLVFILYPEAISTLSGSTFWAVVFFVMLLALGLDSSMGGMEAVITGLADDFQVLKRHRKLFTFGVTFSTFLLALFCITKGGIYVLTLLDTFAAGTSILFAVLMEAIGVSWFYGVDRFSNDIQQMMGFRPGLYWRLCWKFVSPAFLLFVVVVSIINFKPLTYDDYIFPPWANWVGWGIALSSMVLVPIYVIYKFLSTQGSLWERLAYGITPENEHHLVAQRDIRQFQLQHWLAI
# Chain of Histamine H2 receptor (Homo sapiens) (P25021 whole entry): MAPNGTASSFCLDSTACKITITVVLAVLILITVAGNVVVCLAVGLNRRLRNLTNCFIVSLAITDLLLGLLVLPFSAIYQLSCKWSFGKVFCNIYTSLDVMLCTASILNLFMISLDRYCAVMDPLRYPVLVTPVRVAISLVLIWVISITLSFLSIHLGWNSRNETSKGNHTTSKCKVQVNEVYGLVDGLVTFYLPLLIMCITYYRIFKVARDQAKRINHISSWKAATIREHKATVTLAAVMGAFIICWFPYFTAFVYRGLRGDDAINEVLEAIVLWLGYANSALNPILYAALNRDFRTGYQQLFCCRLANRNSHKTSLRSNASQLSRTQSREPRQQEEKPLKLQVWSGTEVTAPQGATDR
pKi [2],pKi (Histamine H3 receptor [3]),SMILES,also measured
8.43,–,CN(C)CCC(Oc1ccc([N+](=O)[O-])cc1)c1ccc(OCCCN2CCCCC2)cc1 (stereo not given),pKi [1]: 8.06
8.11,–,CN(C)CCC(Oc1ccc(C#N)cc1)c1ccc(OCCCN2CCCCC2)cc1 (stereo not given),–
7.20,9.10,CC(C)N1CCN(C(=O)c2ccc(C(CCN(C)C)Oc3ccccc3)cc2)CC1 (stereo not given),–
–,9.15,Cc1ccc(OC(CCN(C)C)c2ccc(OCCCN3CCCCC3)cc2)cc1 (stereo not given),–
–,8.64,CC(C)N1CCN(C(=O)c2ccc(C(CCN(C)C)Oc3ccc(C(F)(F)F)cc3)cc2)CC1 (stereo not given),–
–,9.22,CN(C)CCC(Oc1ccccc1)c1ccc(OCCCN2CCCCC2)cc1 (stereo not given),Activity [4]: 66%; Activity [5]: 73%; pKi [6]: 6.70; Kb (Histamine H3 receptor [7]): 0.501 nM
8.64,–,CN(C)CCC(Oc1cccc(Br)c1)c1ccc(OCCCN2CCCCC2)cc1 (stereo not given),–
7.41,–,CC(C)N1CCC(Oc2ccc(C(CCN(C)C)Oc3ccccc3)cc2)CC1 (stereo not given),–
–,9.05,CN(C)CCC(Oc1cccc(Cl)c1)c1ccc(OCCCN2CCCCC2)cc1 (stereo in doubt; 37),pKi [1]: 8.57
8.22,8.89,CN(C)CCC(Oc1ccccc1)c1ccc(C#CCCN2CCCCC2)cc1 (stereo not given),–
7.48,8.30,CN(C)CCC(Oc1ccc(C(F)(F)F)cc1)c1ccc(C#CCCN2CCCCC2)cc1 (stereo not given),–
–,9.05,CN(C)CCC(Oc1cccc(Cl)c1)c1ccc(OCCCN2CCCCC2)cc1 (stereo in doubt; 38),pKi [1]: 7.68
8.15,–,CN(C)CCC(Oc1ccc(Cl)c(Cl)c1)c1ccc(OCCCN2CCCCC2)cc1 (stereo in doubt; 39),–
–,9.00,COc1ccc(OC(CCN(C)C)c2ccc(OCCCN3CCCCC3)cc2)cc1 (stereo not given),–
8.00,8.57,CN(C)CCC(Oc1ccc(C(F)(F)F)cc1)c1ccc(OCCCN2CCCCC2)cc1 (stereo not given),–
8.11,5.18,CN(C)CCC(Oc1ccc(C(F)(F)F)cc1)c1ccccc1 (stereo not given),pKi [1]: 8.08
–,8.48,CN(C)CCC(Oc1ccccc1)c1cccc(OCCCN2CCCCC2)c1 (stereo not given),–
8.64,–,CN(C)CCC(Oc1ccc(Cl)cc1)c1ccc(OCCCN2CCCCC2)cc1 (stereo not given),–
8.11,–,CN(C)CCC(Oc1ccc(Cl)c(Cl)c1)c1ccc(OCCCN2CCCCC2)cc1 (stereo in doubt; 40),–
–,–,CN(C)CCC(Oc1cccc(OCCCN2CCCCC2)c1)c1ccccc1 (stereo not given),pKi [1]: 5.83
–,–,CN(C)CCC(Oc1ccc(Br)cc1)c1ccc(OCCCN2CCCCC2)cc1 (stereo not given),pKi [1]: 8.05
8.70,–,COc1cccc(OC(CCN(C)C)c2ccc(OCCCN3CCCCC3)cc2)c1 (stereo not given),–
